The record followed here is US9491933B2, “Infected nail of animal infected with fungus” (POLA PHARMA, INC., priority 2007, dated 2016).

This experiment is described as follows: Rabbit immunity suppression: body weight change after administration of the immunosuppressive agent. The following applies: 4 mg/kg per dose to femoral muscle once a week; 2 weeks after starting the administration; average of 15 rabbits. The experiment is classed as in vivo, Japanese white rabbit. Here is the method:
14 week old Japanese white rabbits (Kbl: JW, Kitayama Labes Co., Ltd.) were quarantined and acclimatized for 1 week. After acclimatization, a long-acting methylprednisolone acetate preparation (Depo Melcort, Fuji Pharma Co., Ltd.) was administered as an immunosuppressive agent to femoral muscle a total of three times, with 4 mg/kg as the amount administered in one dose, at intervals of once a week. […] At a point 2 weeks after starting the administration, at which the average of the weights of a total of 15 rabbits had decreased by about 6% from the weight prior to administration, inoculation with a fungal liquid was carried out.

As for `CC(=O)OCC(=O)[C@@]1(O)CC[C@H]2[C@@H]3C[C@H](C)C4=CC(=O)C=C[C@]4(C)[C@H]3[C@@H](O)C[C@@]21C` [methylprednisolone acetate], the “decrease of average weight from the weight prior to administration (indicator of immunocompromise)” value is “about 6%”.
